The results in this text go back to patent publication US20230190873A1, “METHODS AND COMPOSITIONS RELATED TO THE TREATMENT OF NURR1- AND PPARy-MEDIATED CONDITIONS” (The McLean Hospital Corporation, priority 2017, published 2023).

In assay [1] the test system is Nurr1-LBD. The assay is described as follows: Nurr1 LBD-dependent luciferase reporter assay in SK-N-BE(2)C cells. Particulars: GAL4(DBD)-Nurr1(LBD) luciferase reporter. Type of assay: cell-based. The protocol: The graph depicts Nurr1-inducing activities by tissue extracts from brain, lung, heart, and kidney. […] The effector plasmid pSVGAL4(DBD)Nurr1(LBD) and the reporter gene for p8XUASL-Luc, together with b-galactosidase expression vector, were transiently transfected into neuroblastoma SK-N-BE(2)C cells. 6 h after transfection, cells were treated with the various tissue extracts for 20 h and the reporter activities were determined by luciferase assay and normalized to the b-galactosidase activity. The basal level of transcriptional activity was normalized to 1. The bars represent means +S.E.M. from three independent experiments.
Graph depicts effects of single or combination treatment with AQ/CQ and prostaglandin (PGE) on Nurr1 activity. As a negative control, human neuroblastoma SK-N-BE(2)C cells transfected with p8XUAS-Luc and pGAL(DBD)Nurr1(LBD) constructs were treated with DMSO alone. As a positive control, cells were treated as described above and harvested 24 h after treatment. An expression vector encoding RSV b-gal was co-transfected to allow normalization for transfection efficiency. Luciferase activity is represented as fold induction after normalization to β-galactosidase compared to cells treated with DMSO alone. Data represent the means ±SEMs of triplicate samples.
(Reporter assays use an easily measured gene product as a stand-in for the process of interest.)

Assay [2] deals with T1, PPARγ-LBD (Homo sapiens, UniProt P37231).
T1 construct: fold induction of reporter constructs of Nurr1-LBD, PPARa-LBD, and PPARγ-LBD; expressed in transfected cells
T1 sequence (P37231 238-503 limits assumed): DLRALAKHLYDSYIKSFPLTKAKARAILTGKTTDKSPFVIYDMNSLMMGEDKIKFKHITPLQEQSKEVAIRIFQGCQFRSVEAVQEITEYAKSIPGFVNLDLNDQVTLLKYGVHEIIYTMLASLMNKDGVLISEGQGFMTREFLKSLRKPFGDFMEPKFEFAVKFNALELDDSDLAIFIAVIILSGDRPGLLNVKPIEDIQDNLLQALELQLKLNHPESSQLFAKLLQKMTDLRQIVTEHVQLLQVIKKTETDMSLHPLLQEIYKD
Put plainly: PPARγ-LBD reporter construct transcriptional activation. Type of assay: cell-based. The source says:
FIG. 13 depicts the fold induction of reporter constructs of Nurr1-LBD, PPARa-LBD, and PPARγ-LBD by different concentrations of PGH1, PGH2, PGJ2, and 15-d-PGJ2. […]

Assay [3] concerns the target T2, PPARa-LBD (Homo sapiens, UniProt Q07869).
T2 construct: fold induction of reporter constructs of Nurr1-LBD, PPARa-LBD, and PPARγ-LBD; expressed in transfected cells
T2 sequence (Q07869 239-466 limits assumed): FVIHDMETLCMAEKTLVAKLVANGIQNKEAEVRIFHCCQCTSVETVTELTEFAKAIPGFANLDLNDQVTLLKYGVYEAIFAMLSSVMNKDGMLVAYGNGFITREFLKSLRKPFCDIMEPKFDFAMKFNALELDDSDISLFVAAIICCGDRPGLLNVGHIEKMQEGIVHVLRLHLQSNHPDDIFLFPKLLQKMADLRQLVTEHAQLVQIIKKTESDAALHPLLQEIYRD
Put plainly: PPARa-LBD reporter construct transcriptional activation. Type of assay: cell-based. The source says:
FIG. 13 depicts the fold induction of reporter constructs of Nurr1-LBD, PPARa-LBD, and PPARγ-LBD by different concentrations of PGH1, PGH2, PGJ2, and 15-d-PGJ2.

In assay [4] the test system is MPTP-induced animal model of PD. Put plainly: MPTP-induced animal model of PD. Type of assay: in vivo, mice. Particulars: for TH density in the striatum / number of TH+ neurons in the SN: MPTP-treated mice, compared to saline-treated control mice; for latency to fall on a rotating rod (rotarod) / time to descent on the pole (pole test): day 6 following MPTP, compared to saline-treated mice. The source says:
FIG. 22A depicts a schematic representation of the administration of PGE1 or PGA1 to MPTP-induced animal model of PD. MPTP-treated mice were pre-administrated with PGE1, PGA1 or saline for 3 days before MPTP injection and post-treated for 5 days after MPTP injection.

Assay [5] has as its system H9, human embryonic stem cell (hESC). Put plainly: Dopaminergic differentiation of H9 hESC (real time PCR). In kind it is cell-based. Particulars: for expression level of Lmx1A / expression level of TH: 15 days of differentiation, compared to vehicle group. The protocol:
After 15 days of differentiation procedure including floor plate induction (day1˜day6), neural precursor induction (day 6˜day 12), and dopaminergic precursor induction (day 12˜day 15), cells were harvested for RNA extraction and cDNA preparation. The real time PCR was performed using cDNA and the matching primers for FoxA2, Lmx1A, and TH to determine the level of dopaminergic differentiation.

For assay [6], the system named is LPS-induced immunoactivated mouse bone marrow-derived macrophages. The assay is described as follows: Pro-inflammatory gene expression in immune-activated mBMMs. Type of assay: cell-based. The note with it: LPS- or poly(I:C)-induced immune-activated mBMMs, 18 hrs. The protocol: FIG. 25 show titrations of prostaglandin A1 (PGA1), A2 (PGA2), E1 (PGE1), E2 (PGE2) in LPS-induced immunoactivated mouse bone marrow-derived macrophages. […] The maximal effective concentration was 20 μM or 10 μg/ml.

In assay [7] the test system is primary cultured mDA neurons. Put plainly: MPP+ toxicity in primary cultured mDA neurons. Type of assay: cell-based. The note with it: MPP+ exposure. An excerpt:
MPP+exposure to mDA neurons decreases the number of TH positive dopaminergic neurons.

Several values for one entry are separate records, joined by “and”; a condition that tells them apart may be missing. Equal entries are not always repeated. Entries after “also recorded” stand apart in the source; their conditions may differ.

Regarding `CCCCC/C=C/C=C1/C(=O)C=C[C@@H]1C/C=C\CCCC(=O)O` [15-d-PGJ2], the “transcriptional activity of Nurr1-LBD” value in assay [1] was “not Nurr1 LBD”. Moreover, the “transcriptional activity of PPARγ-LBD” value in assay [2] is “robustly activated PPARs; also recorded: increases transcriptional activity of PPARγ-LBD”. Further, the “transcriptional activity of PPARalpha LBD” value in assay [3] was “robustly activated PPARs”.

On to `CCCCC[C@H](O)/C=C/[C@H]1C=CC(=O)[C@@H]1CCCCCCC(=O)O` [PGA1, prostaglandin A1], for which, in assay [1], the “transcriptional activity of Nurr1-LBD” value is on record as “increases transcriptional activity of Nurr1-LBD in a dose dependent manner”. Also, in assay [4], the “TH density in the striatum” value is on record as “retain”, the “number of TH+ neurons in the SN” value was “retain a significant number”, the “latency to fall on a rotating rod (rotarod)” value was “rescues impaired motor behaviors” and the “time to descent on the pole (pole test)” value is recorded as “rescues impaired motor behaviors”. For the same molecule, in assay [5], the “expression level of Lmx1A” value is “significantly higher expression level of Lmx1A and TH”; the “expression level of TH” value is “significantly higher expression level of Lmx1A and TH”. In addition, in assay [6], the maximal effective concentration is 20 μM and 10 μg/ml; the “suppression of pro-inflammatory genes TNFα, IL-1β, iNOS and IL-6” value (“suppression” below) is “induced suppression of pro-inflammatory genes including TNFα, IL-1β, iNOS and IL-6 in a dose-dependent manner”. Also, in assay [7], the “MPP+-induced loss of TH-positive mDA neurons” value is recorded as “significantly rescued the MPP+-induced loss of TH-positive mDA neurons”.

With `CCCCC[C@H](O)/C=C/[C@H]1C=CC(=O)[C@@H]1C/C=C\CCCC(=O)O` [PGA2], the “transcriptional activity of Nurr1-LBD” value in assay [1] is given as “increases transcriptional activity of Nurr1-LBD in a dose dependent manner”. Further, in assay [6], the maximal effective concentration was 20 μM and 10 μg/ml; the “suppression” value is “induced suppression of pro-inflammatory genes including TNFα, IL-1β, iNOS and IL-6 in a dose-dependent manner”.

Regarding `CC/C=C\C[C@H](O)/C=C/[C@H]1C=CC(=O)[C@@H]1C/C=C\CCCC(=O)O` [PGA3], the “transcriptional activity of Nurr1-LBD” value in assay [1] is recorded as “increases transcriptional activity of Nurr1-LBD in a dose dependent manner”.

For the molecule `CCCCC[C@H](O)/C=C/C1=C(CCCCCCC(=O)O)C(=O)CC1` [PGB1], the “transcriptional activity of Nurr1-LBD” value in assay [1] was “increases transcriptional activity of Nurr1-LBD in a dose dependent manner”. Also, the “transcriptional activity of PPARγ-LBD” value in assay [2] is “activate transcriptional function of PPARγ in a dose-dependent manner”. Further, in assay [5], the “expression level of Lmx1A” value is “significantly higher expression level of Lmx1A and TH”; the “expression level of TH” value is “significantly higher expression level of Lmx1A and TH”.

As to `CCCCC[C@H](O)/C=C/C1=C(C/C=C\CCCC(=O)O)C(=O)CC1` [PGB2], in assay [1], the “transcriptional activity of Nurr1-LBD” value was “increases transcriptional activity of Nurr1-LBD in a dose dependent manner”. For the same molecule, the “transcriptional activity of PPARγ-LBD” value in assay [2] is “activate transcriptional function of PPARγ in a dose-dependent manner”.

Turning to `CC/C=C\CC(O)/C=C/C1=C(C/C=C\CCCC(=O)O)C(=O)CC1` (centres unmarked) [PGB3], the “transcriptional activity of Nurr1-LBD” value in assay [1] is recorded as “increases transcriptional activity of Nurr1-LBD in a dose dependent manner”.

For the molecule `CCCCC[C@H](O)/C=C/[C@H]1[C@H](O)CC(=O)[C@@H]1CCCCCCC(=O)O` [PGE1], the “transcriptional activity of Nurr1-LBD” value in assay [1] was “specifically and prominently activate the transcription function of Nurr1; also recorded: endogenous activators/agonists of Nurr1 function; also recorded: activate the transcriptional activity of Nurr1 in a dose-dependent manner; also recorded: increase transcriptional activity of Nurr1-LBD in a dose dependent manner”. Besides, in assay [4], the “TH density in the striatum” value is “retain”, the “number of TH+ neurons in the SN” value is listed as “retain a significant number”, the “latency to fall on a rotating rod (rotarod)” value is “rescues impaired motor behaviors” and the “time to descent on the pole (pole test)” value is given as “rescues impaired motor behaviors”. Besides, the “transcriptional activity of PPARγ-LBD” value in assay [2] was “failed to induce transcriptional activity of PPARγ-LBD”. For the same molecule, the “TH expression compared with cAMP” value in assay [5] (0.01 mM concentration) is listed as “dramatic increase of TH expression in 0.01 mM concentration, which was even stronger than cAMP”. In assay [5], the “expression level of Lmx1A” value was “significantly higher expression level of Lmx1A and TH”; the “expression level of TH” value is “significantly higher expression level of Lmx1A and TH”. Moreover, in assay [6], the maximal effective concentration was 20 μM and 10 μg/ml; the “suppression” value was “induced suppression of pro-inflammatory genes including TNFα, IL-1β, iNOS and IL-6 in a dose-dependent manner”. Besides, the “MPP+-induced loss of TH-positive mDA neurons” value in assay [7] is given as “significantly rescued the MPP+-induced loss of TH-positive mDA neurons”.

In the case of `CCCCC[C@H](O)/C=C/[C@H]1[C@H](O)CC(=O)[C@@H]1C/C=C\CCCC(=O)O` [PGE2], the “transcriptional activity of Nurr1-LBD” value in assay [1] was “specifically and prominently activate the transcription function of Nurr1; also recorded: endogenous activators/agonists of Nurr1 function; also recorded: activate the transcriptional activity of Nurr1 in a dose-dependent manner; also recorded: increase transcriptional activity of Nurr1-LBD in a dose dependent manner”. For the same molecule, in assay [2], the “transcriptional activity of PPARγ-LBD” value is given as “failed to induce transcriptional activity of PPARγ-LBD”. For the same molecule, in assay [6], the maximal effective concentration was 20 μM and 10 μg/ml; the “suppression” value is “induced suppression of pro-inflammatory genes including TNFα, IL-1β, iNOS and IL-6 in a dose-dependent manner”.

In the case of `CC/C=C\C[C@H](O)/C=C/[C@H]1[C@H](O)CC(=O)[C@@H]1C/C=C\CCCC(=O)O` [PGE3], the “transcriptional activity of Nurr1-LBD” value in assay [1] was “specifically and prominently activate the transcription function of Nurr1; also recorded: endogenous activators/agonists of Nurr1 function”.

For the molecule `CCCCC[C@H](O)/C=C/[C@@H]1[C@@H](CCCCCCC(=O)O)[C@@H](O)C[C@H]1O` [PGF2a], the “transcriptional activity of Nurr1-LBD” value in assay [1] is “activates transcriptional function of Nurr1; also recorded: increases transcriptional activity of Nurr1-LBD in a dose dependent manner”. For the same molecule, the “transcriptional activity of PPARγ-LBD” value in assay [2] is on record as “failed to induce transcriptional activity of PPARγ-LBD”.

In the case of `CCCCC[C@H](O)/C=C/C1C2CC(OO2)C1C/C=C\CCCC(=O)O` (some centres unmarked) [PGH2], the “transcriptional activity of Nurr1-LBD” value in assay [1] is listed as “robustly activate the transcriptional activities of Nurr1 LBD; also recorded: increase transcriptional activity of Nurr1-LBD in a dose dependent manner”. Besides, the “transcriptional activity of PPARγ-LBD” value in assay [2] was “failed to induce transcriptional activity of PPARγ-LBD”.

As for `CCCCC[C@H](O)/C=C/[C@H]1C(=O)C=C[C@@H]1C/C=C\CCCC(=O)O` [PGJ2], the “transcriptional activity of Nurr1-LBD” value in assay [1] is reported as “not Nurr1 LBD”. In addition, the “transcriptional activity of PPARγ-LBD” value in assay [2] was “robustly activated PPARs”. For the same molecule, the “transcriptional activity of PPARalpha LBD” value in assay [3] was “robustly activated PPARs”.

For the molecule `CCCCC[C@H](O)/C=C/[C@H]1OC(O)C[C@H](O)[C@@H]1C/C=C\CCCC(=O)O` (some centres unmarked) [TxB2, reference compound], the “transcriptional activity of Nurr1-LBD” value in assay [1] is “does not activate transcriptional function of Nurr1 and PPARγ; also recorded: failed to induce transcriptional activity of Nurr1-LBD”. Also, the “transcriptional activity of PPARγ-LBD” value in assay [2] was “does not activate transcriptional function of Nurr1 and PPARγ; also recorded: failed to induce transcriptional activity of PPARγ-LBD”.
